Laboratory results: PubChem BioAssay AID1918931 (Molecular Pharmacology Branch, DTP, NCI, 2023)

Tested on: 138582-337-R-J1-PDC complex spheroid viability
Test: Anticancer human tumor 138582-337-R-J1-PDC patient-derived Merkel cell tumor cell line growth inhibition
Details: for IC50: curve of first compound; for viability, T/C: stronger effect = lower value
Summary of the method: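 Drug combinations with the LSD1 inhibitor iadademstat tested on tumor cells co-cultured as spheroids with endothelial cells and mesenchymal stem cells. Concentrations descended in half-log increments from clinical Cmax or 10 microM.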

[1] = second compound 0.1 µM, first compound 0.000316 µM
[2] = second compound 0.1 µM, first compound 0.001 µM
[3] = second compound 0.1 µM, first compound 0.00316 µM
[4] = second compound 0.1 µM, first compound 0.01 µM
[5] = second compound 0.1 µM, first compound 0.0316 µM
[6] = second compound 0.1 µM, first compound 0.1 µM
[7] = second compound 0.316 µM, first compound 0.000316 µM
[8] = second compound 0.316 µM, first compound 0.001 µM
[9] = second compound 0.316 µM, first compound 0.00316 µM
[10] = second compound 0.316 µM, first compound 0.01 µM
[11] = second compound 0.316 µM, first compound 0.0316 µM
[12] = second compound 0.316 µM, first compound 0.1 µM
[13] = second compound 1 µM, first compound 0.000316 µM
[14] = second compound 1 µM, first compound 0.001 µM
[15] = second compound 1 µM, first compound 0.00316 µM
[16] = second compound 1 µM, first compound 0.01 µM
[17] = second compound 1 µM, first compound 0.0316 µM
[18] = second compound 1 µM, first compound 0.1 µM
[19] = second compound 3.16 µM, first compound 0.000316 µM
[20] = second compound 3.16 µM, first compound 0.001 µM
[21] = second compound 3.16 µM, first compound 0.00316 µM
[22] = second compound 3.16 µM, first compound 0.01 µM
[23] = second compound 3.16 µM, first compound 0.0316 µM
[24] = second compound 3.16 µM, first compound 0.1 µM
[25] = second compound 10 µM, first compound 0.000316 µM
[26] = second compound 10 µM, first compound 0.001 µM
[27] = second compound 10 µM, first compound 0.00316 µM
[28] = second compound 10 µM, first compound 0.01 µM
[29] = second compound 10 µM, first compound 0.0316 µM
[30] = second compound 10 µM, first compound 0.1 µM
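Also: spheroids exposed to agents for 7 days.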
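For viability, T/C in this document: 100% = DMSO vehicle control viability.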

Structure (SMILES) | IC50 (second compound 0.1 µM) | IC50 (second compound 0.316 µM) | IC50 (second compound 1 µM) | IC50 (second compound 3.16 µM) | IC50 (second compound 10 µM) | viability, T/C [1] | viability, T/C [2] | viability, T/C [3] | viability, T/C [4] | viability, T/C [5] | viability, T/C [6] | viability, T/C [7] | viability, T/C [8] | viability, T/C [9] | viability, T/C [10] | viability, T/C [11] | viability, T/C [12] | viability, T/C [13] | viability, T/C [14] | viability, T/C [15] | further results
CC(C)CC(NC(=O)C(Cc1ccccc1)NC(=O)c1cnccn1)B(O)O (stereo not given) + NC1CCC(NC2CC2c2ccccc2)CC1 | 1.03 nM | 1.01 nM | 0.946 nM | 0.951 nM | 0.842 nM | 125% | 51.3% | 0.5% | 0.19% | 0.22% | 0.28% | 116% | 50.6% | 0.83% | 0.29% | 0.16% | 0.25% | 114% | 46.8% | 0.91% | viability, T/C [16]: 0.12%; viability, T/C [17]: 0.14%; viability, T/C [18]: 0.29%; viability, T/C [19]: 116%; viability, T/C [20]: 47%; viability, T/C [21]: 1.46%; viability, T/C [22]: 0.18%; viability, T/C [23]: 0.15%; viability, T/C [24]: 0.25%; viability, T/C [25]: 105%; viability, T/C [26]: 40.3%; viability, T/C [27]: 0.75%; viability, T/C [28]: 0.3%; viability, T/C [29]: 0.22%; viability, T/C [30]: 0.24%
CC(C)CC(NC(=O)CNC(=O)c1cc(Cl)ccc1Cl)B1OC(=O)CC(CC(=O)O)(C(=O)O)O1 (stereo not given) + NC1CCC(NC2CC2c2ccccc2)CC1 | 8.89 nM | 8.97 nM | 10 nM | 8.03 nM | 8.49 nM | 101% | 129% | 124% | 42.3% | 6.66% | 0.46% | 109% | 129% | 115% | 42.9% | 11.4% | 0.49% | 94.4% | 115% | 120% | viability, T/C [16]: 50.1%; viability, T/C [17]: 7.89%; viability, T/C [18]: 0.25%; viability, T/C [19]: 104%; viability, T/C [20]: 98.8%; viability, T/C [21]: 112%; viability, T/C [22]: 37.1%; viability, T/C [23]: 9.88%; viability, T/C [24]: 0.47%; viability, T/C [25]: 89.8%; viability, T/C [26]: 105%; viability, T/C [27]: 101%; viability, T/C [28]: 42%; viability, T/C [29]: 7.38%; viability, T/C [30]: 0.96%
